Test system: distant metastatic pancreatic cancer
Assay: Multicenter, open-label study of Nivolumab in combination with mFFX therapy; anti-tumor effect by CT/MRI according to RECIST guideline version 1.1
Assay type: in vivo, patients
Conditions: 16 weeks after start of administration, central judgment
Protocol: The purpose of this clinical trial is to evaluate the efficacy and safety in combination of Nivolumab and mFFX therapy for patients with distant metastatic pancreatic cancer, having no history of chemotherapy. The clinical trial can evaluate the combined effect of Nivolumab and mFFX therapy.
Patients with distant metastatic pancreatic cancer, having no history of chemotherapy
Nivolumab was intravenously administered at 480 mg every 4 weeks over 30 minutes, and Nivolumab was continuously administered until falling into the prescribed criterion for discontinuing the administration of Nivolumab. No change in dose of Nivolumab is allowed. When Nivolumab and mFFX therapy were administered on the same day, Nivolumab was administered initially, and at least 30 minutes after the end of Nivolumab administration, mFFX therapy started.
Oxaliplatin was intravenously administered at 85 mg/m^2 over 2 hours, and then levofolinate was intravenously administered at 200 mg/m^2 over 2 hours. 30 minutes after the start of levofolinate administration, irinotecan was intravenously administered at 150 mg/m^2 over 1.5 hours. Further, after completion of levofolinate administration, fluorouracil was intravenously administered at 2400 mg/m^2 over 46 hours. This was set as one cycle and repeated every 2 weeks.
The anti-tumor effect was evaluated by image diagnosis using CT/magnetic resonance imaging (MRI) on chest, abdomen and pelvis, and measuring the tumor diameter in target lesion according to RECIST guideline version 1.1. The diagnosis imaging (measurement of tumor diameter and judgement of anti-tumor effect) was conducted at the following time points. […]
6 months after the first subject was enrolled, for 7 subjects in which the image diagnosis twice every 8 weeks as defined in the clinical trial protocol was completed (16 weeks after the start of administration of the drug), the effectiveness was evaluated (central judgment).

[1] = Nivolumab 480 mg i.v. every 4 weeks in combination with mFFX therapy, 7 subjects evaluated

Substance: Nivolumab
- response rate (Nivolumab 480 mg i.v. every 4 weeks in combination with mFFX therapy every 2 weeks, 7 subjects with distant metastatic pancreatic cancer, no history of chemotherapy): 42.9%
- CR (number of cases) [1]: 0 cases
- PR (number of cases) [1]: 3 cases

Source: patent US12447150B2, “Treatment of cancer by combination of immune checkpoint inhibitor and folfirinox therapy” (ONO PHARMACEUTICAL CO., LTD., priority 2018, dated 2025)
